In patent US9555052B2, “Intrauterine fetal growth restriction—the biochemical rationale of treatment modalities including extraperitoneal transamniotic fetal supplements” (priority 2003, dated 2017):
Read-outs that look alike come from different tables or passages of the source.

How the values were obtained:
[1] = tested on: all tissues types; conditions: cited from earlier work
[2] = tested on: severely growth restricted fetus (fetal IUGR); test: Clinical case study: severe fetal IUGR treated with maternal IV hypertonic D-glucose bolus; type: in vivo, human
Excerpt: At the outset, it is relevant to describe a clinical case study of successfully treating a severe case of fetal IUGR, during the years 1983-84, by the Author Inventor as a practicing ob/gyn. in India, as it is the basis for this writing of significant depth that aided the author inventor decades later to fully comprehend what was once successfully treated, but was only incompletely understood at that time.
They were well nourished and was from good socioeconomic background, and there were no obvious etiological factors, that could be accounted for the identified fetal IUGR. After monitoring the growth of the fetus by assessing fundal height (a clinical norm of fetal measure in the past) for 3-4 more weeks, it was confirmed that the uterine size was not progressing, and that the patient had severely growth restricted fetus. […] The patient had more frequent pre-natal follow ups, and the treatment was diligently continued with increments, as also the patient was admirably cooperative. Nearing term, they were delivered by elective cesarean section.
The observed fetal growth restriction was undoubtedly severe, but with mere hypertonic intravenous D-glucose treatment and no other (except for standard doses of prenatal vitamins and minerals), the […] delivered an AGA baby, who obviously had caught up with standard growth curve, as though glucose supplement alone, and nothing else was needed.

[3] = tested on: rabbit fetus; conditions: cited from earlier work
[4] = tested on: Human Umbilical Vessel Endothelial cells (HUVEC); conditions: cited from earlier work
[5] = 25 G IV bolus over 3-5 minutes, cited from earlier work

Molecule: NCCCC[C@@H](N)C(=O)O [D-lysine]
- neovascular growth ([1]; all tissues types): induce neovascular growth

Molecule: O=C[C@H](O)[C@@H](O)[C@H](O)[C@H](O)CO [D-glucose]
- fetal growth response ([2]; 20% IV bolus 50 cc twice daily to the parent, observed in 2-3 weeks): undoubted and immediate catch up of fetal growth
- birth weight for gestational age ([2]; at delivery nearing term): appropriate for the gestational age (AGA)
- Apgar score of the baby ([2]; elective cesarean nearing term after continued treatment with increments): 10
- adverse effects in the mother due to induced maternal hyperglycemia ([2]; throughout gestation): No adverse effects
- reversal of growth restriction ([3]; Flake et al, natural runt rabbit fetus, solutions alone or in combination): did not reverse growth restriction
- fetal weight ([3]; Mulvihill et al 1985, pregnant rabbit models, transamniotic): increase in fetal weight
- CGMP accumulation [4]: increased
- L-Arginine transport [4]: increased
- blood glucose level (peak) ([5]; at 15 minutes): 175 mg %
- blood glucose level ([5]; at 30 minutes): 125 mg %
- blood glucose level ([5]; at 1 hour): 75 mg %
- blood glucose level ([5]; during the second hour): 70 mg %

Molecule: insulin
- CGMP accumulation [4]: increased
- L-Arginine transport [4]: increased

Molecule: NCCCC[C@H](N)C(=O)O [monomeric lysine, lysine]
- biomass (cell population) expansion ([1]; compared to other physicochemical means): expand biomass (cell population) at the least possible time
